Laboratory results reported in patent US8192962B2, “Processes for detecting toxic substances” (Daikin Industries, Ltd., priority 2001, dated 2012).

Test system: Genes belonging to other category
Assay: DNA chip mRNA expression in yeast, genes belonging to other category (Table 9)
Assay type: cell-based, Saccharomyces cerevisiae S288C
Protocol: Yeast (Saccharomyces cerevisiae S288C (α SUC2mal mel gap2 CUP1)) were incubated at 25° C. on YPD medium (yeast extract 1%, polypepton 2%, glucose 2%). One of toxic chemical substances was added to the cells at logarithmic growth phase, and the cells were further incubated for two hours. Cells were cultured without any chemical substance in the same condition, and were used as control. Concentrations of the chemical substances were defined to inhibit the growth of the yeast but not lead to death.
After completion of the incubation, the culture was centrifuged to collect the cells. To the cells, sodium acetate buffer (50 mM sodium acetate, 10 mM EDTA, 1% SDS) was added, and the mixture was shaken at 65° C. for five minutes, followed by returning to room temperature, and obtaining the supernatant, of which the procedures were repeated two times. To the supernatant, ½ amount of a solution of phenol/chloroform was added, and the mixture was centrifuged to give a supernatant, which was added with an equal amount of chloroform, and the mixture was centrifuged to give a supernatant. To the supernatant, an equal amount of isopropanol containing 0.3 M sodium acetate was added, and the mixture was allowed to stand at room temperature for 30 minutes, after which the mixture was centrifuged to give a sediment of the whole RNAs. Seventy % ethanol was added to the sediment, and the mixture was again centrifuged to give a sediment, which was then dried and dissolved in water. mRNA was isolated from the whole RNAs as followings. In view of the fact that a poly A chain is attached to the 3′ terminus of mRNA, a polynucleotide having a poly T structure which was immobilized on the surface of latex beads was used to trap the mRNA, and then the mRNA was washed and eluted with spine column (Oligotex-dT30<Super>mRNA Purification Kit, Takara). Reverse transcription of the mRNA was conducted with a reverse transcriptase (Super Script II Reverse Transcriptase; catalogue No. 18064-014, GibcoBRL) using fluorescence-labeled nucleotides to give cDNAs that were introduced with Cy3-dUTP or Cy5-dUTP during the reverse transcription.
The labeled cDNAs were dissolved in TE buffer (10mM Tris-HCl/1 mM EDTA, pH8.0), and the solution was dropped on the DNA chip containing the whole genes of yeast (DNA Chip Research Inc. Japan) so that the cDNAs were hybridized on the DNA chip at 65° C. for over 12 hours. The fluoresces intensity of the DNA chip was read with a scanner, and the ratio relative to the fluorescence intensity resulting from the absence of chemical substance was estimated as the following, which is shown in Tables 1 to 9: […]

In the case of “manganese ethylenebis(dithiocarbamate) [(8)]”, the “The level of expressed mRNA in the presence of chemical substance/The level of expressed mRNA in the absence of chemical substance” value (yeast gene YAR010C) is reported as 1.3, the “The level of expressed mRNA in the presence of chemical substance/The level of expressed mRNA in the absence of chemical substance” value (yeast gene YBL005W-A) is reported as 1.0 and the “The level of expressed mRNA in the presence of chemical substance/The level of expressed mRNA in the absence of chemical substance” value (yeast gene YBL041W) is reported as 1.7. The “The level of expressed mRNA in the presence of chemical substance/The level of expressed mRNA in the absence of chemical substance” value (yeast gene YBL043W) was 2.1, the “The level of expressed mRNA in the presence of chemical substance/The level of expressed mRNA in the absence of chemical substance” value (yeast gene YBL078C) was 1.6 and the “The level of expressed mRNA in the presence of chemical substance/The level of expressed mRNA in the absence of chemical substance” value (yeast gene YBR214W) was 0.7. For the same substance, the “The level of expressed mRNA in the presence of chemical substance/The level of expressed mRNA in the absence of chemical substance” value (yeast gene YCL020W) was 1.7, the “The level of expressed mRNA in the presence of chemical substance/The level of expressed mRNA in the absence of chemical substance” value (yeast gene YCL027W) was 0.6 and the “The level of expressed mRNA in the presence of chemical substance/The level of expressed mRNA in the absence of chemical substance” value (yeast gene YCR004C) was 1.2. The “The level of expressed mRNA in the presence of chemical substance/The level of expressed mRNA in the absence of chemical substance” value (yeast gene YCR071C) was 0.9, the “The level of expressed mRNA in the presence of chemical substance/The level of expressed mRNA in the absence of chemical substance” value (yeast gene YCR088W) was 0.5 and the “The level of expressed mRNA in the presence of chemical substance/The level of expressed mRNA in the absence of chemical substance” value (yeast gene YDL008W) was 1.2. For the same substance, the “The level of expressed mRNA in the presence of chemical substance/The level of expressed mRNA in the absence of chemical substance” value (yeast gene YDL238C) was 5.8, the “The level of expressed mRNA in the presence of chemical substance/The level of expressed mRNA in the absence of chemical substance” value (yeast gene YDR055W) was 1.6 and the “The level of expressed mRNA in the presence of chemical substance/The level of expressed mRNA in the absence of chemical substance” value (yeast gene YDR084C) was 0.7. For the same substance, the “The level of expressed mRNA in the presence of chemical substance/The level of expressed mRNA in the absence of chemical substance” value (yeast gene YDR085C) was 2.0, the “The level of expressed mRNA in the presence of chemical substance/The level of expressed mRNA in the absence of chemical substance” value (yeast gene YDR104C) was 1.3 and the “The level of expressed mRNA in the presence of chemical substance/The level of expressed mRNA in the absence of chemical substance” value (yeast gene YDR115W) was 1.3. The “The level of expressed mRNA in the presence of chemical substance/The level of expressed mRNA in the absence of chemical substance” value (yeast gene YDR259C) was 1.4, the “The level of expressed mRNA in the presence of chemical substance/The level of expressed mRNA in the absence of chemical substance” value (yeast gene YDR315C) was 1.4 and the “The level of expressed mRNA in the presence of chemical substance/The level of expressed mRNA in the absence of chemical substance” value (yeast gene YDR358W) was 1.2. For the same substance, the “The level of expressed mRNA in the presence of chemical substance/The level of expressed mRNA in the absence of chemical substance” value (yeast gene YDR388W) was 0.8, the “The level of expressed mRNA in the presence of chemical substance/The level of expressed mRNA in the absence of chemical substance” value (yeast gene YDR432W) was 0.5 and the “The level of expressed mRNA in the presence of chemical substance/The level of expressed mRNA in the absence of chemical substance” value (yeast gene YDR481C) was 1.0. The “The level of expressed mRNA in the presence of chemical substance/The level of expressed mRNA in the absence of chemical substance” value (yeast gene YDR510W) was 1.5, the “The level of expressed mRNA in the presence of chemical substance/The level of expressed mRNA in the absence of chemical substance” value (yeast gene YEL042W) was 0.7 and the “The level of expressed mRNA in the presence of chemical substance/The level of expressed mRNA in the absence of chemical substance” value (yeast gene YEL066W) was 1.4. For the same substance, the “The level of expressed mRNA in the presence of chemical substance/The level of expressed mRNA in the absence of chemical substance” value (yeast gene YER039C) was 0.7, the “The level of expressed mRNA in the presence of chemical substance/The level of expressed mRNA in the absence of chemical substance” value (yeast gene YER107C) was 0.8 and the “The level of expressed mRNA in the presence of chemical substance/The level of expressed mRNA in the absence of chemical substance” value (yeast gene YER130C) was 1.2. The “The level of expressed mRNA in the presence of chemical substance/The level of expressed mRNA in the absence of chemical substance” value (yeast gene YFL022C) was 0.8, the “The level of expressed mRNA in the presence of chemical substance/The level of expressed mRNA in the absence of chemical substance” value (yeast gene YFL028C) was 1.5 and the “The level of expressed mRNA in the presence of chemical substance/The level of expressed mRNA in the absence of chemical substance” value (yeast gene YFL043C) was 1.0. For the same substance, the “The level of expressed mRNA in the presence of chemical substance/The level of expressed mRNA in the absence of chemical substance” value (yeast gene YGL158W) was 1.3, the “The level of expressed mRNA in the presence of chemical substance/The level of expressed mRNA in the absence of chemical substance” value (yeast gene YGL229C) was 0.7 and the “The level of expressed mRNA in the presence of chemical substance/The level of expressed mRNA in the absence of chemical substance” value (yeast gene YGR136W) was 1.3. For the same substance, the “The level of expressed mRNA in the presence of chemical substance/The level of expressed mRNA in the absence of chemical substance” value (yeast gene YGR189C) was 1.0, the “The level of expressed mRNA in the presence of chemical substance/The level of expressed mRNA in the absence of chemical substance” value (yeast gene YGR213C) was 2.0 and the “The level of expressed mRNA in the presence of chemical substance/The level of expressed mRNA in the absence of chemical substance” value (yeast gene YGR257C) was 1.0. For the same substance, the “The level of expressed mRNA in the presence of chemical substance/The level of expressed mRNA in the absence of chemical substance” value (yeast gene YHR004C) was 0.9, the “The level of expressed mRNA in the presence of chemical substance/The level of expressed mRNA in the absence of chemical substance” value (yeast gene YHR071W) was 1.7 and the “The level of expressed mRNA in the presence of chemical substance/The level of expressed mRNA in the absence of chemical substance” value (yeast gene YHR139C) was 1.3. The “The level of expressed mRNA in the presence of chemical substance/The level of expressed mRNA in the absence of chemical substance” value (yeast gene YHR142W) was 1.3, the “The level of expressed mRNA in the presence of chemical substance/The level of expressed mRNA in the absence of chemical substance” value (yeast gene YIL123W) was 0.6 and the “The level of expressed mRNA in the presence of chemical substance/The level of expressed mRNA in the absence of chemical substance” value (yeast gene YIL140W) was 0.7. The “The level of expressed mRNA in the presence of chemical substance/The level of expressed mRNA in the absence of chemical substance” value (yeast gene YJL073W) was 1.0, the “The level of expressed mRNA in the presence of chemical substance/The level of expressed mRNA in the absence of chemical substance” value (yeast gene YJL089W) was 1.1 and the “The level of expressed mRNA in the presence of chemical substance/The level of expressed mRNA in the absence of chemical substance” value (yeast gene YJL116C) was 1.8. For the same substance, the “The level of expressed mRNA in the presence of chemical substance/The level of expressed mRNA in the absence of chemical substance” value (yeast gene YJR004C) was 0.4 and the “The level of expressed mRNA in the presence of chemical substance/The level of expressed mRNA in the absence of chemical substance” value (yeast gene YJR086W) was 1.1.
